Source: US20240197674A1, “NOVEL USE OF 3-(4-(BENZYLOXY)PHENYL)HEX-4-INOIC ACID DERIVATIVE” (Hyundai Pharm Co., Ltd., priority 2021, published 2024)
“Also recorded” adds a separate entry of the source.

Columns and labels:
Assay type in all cases: cell-based
C2C12 cells [1] = assay: MyHC positive area and myotube thickness after palmitate treatment and 3 days of differentiation; settings: with palmitate 24 hours, then 3 days differentiation, versus decrease by palmitate only
Protocol: (§1) Sarcopenia is known to be accelerated by diabetes, obesity, or inflammatory responses. Accordingly, it was confirmed whether Compound A can inhibit muscle loss even under the above conditions as follows. Palmitate (PA; P9767, Sigma-Aldrich, USA) was dissolved in ethanol and then mixed with bovine serum albumin (BSA; A7888, Sigma-Aldrich) dissolved in DMEM at a molar ratio of 6:1, followed by conjugation at 60° C. for 1 hour. Cells were treated with the resulting conjugate.
(§2) Compound A and the palmitate were mixed in a growth medium (10% FBS-containing DMEM), and C2C12 cells were treated with the resulting mixture. After 24 hours, the medium was exchanged with a fresh […] to induce differentiation for 3 days, and after 3 days, the cells were collected to confirm the expression of MyoG and MyHC, and the changes in MyHC positive area and myotube thickness.

C2C12 cells [2] = assay: Atrogin-1 expression in differentiated C2C12 myotubes treated with palmitate; settings: C2C12 differentiated 6 days into myotubes, with palmitate in differentiation medium, versus palmitate only
Protocol: as §1
(§3) Atrogin-1 is a type of E3 ubiquitin ligase and a marker associated with muscular atrophy, and it is known that, as its gene expression increases, muscle is broken down. To confirm the change in atrogin-1 expression by Compound A, C2C12 cells were cultured in a differentiation medium for 6 days to induce differentiation into myotubes, and the differentiated cells were treated with a mixture of Compound A and palmitate in a differentiation medium. Afterward, an expression level was confirmed using an atrogin-1 antibody (Abnova, PAB15627), and cell viability was measured.

C2C12 cells [3] = assay: MyHC immunohistochemistry: MyHC positive area, myotube thickness and myotube formation; settings: C2C12 myoblasts, differentiation medium, 3 days
Protocol: (§4) C2C12 cells, which are myoblasts, were cultured and treated with a mixture of Compound A in a differentiation medium [2% horse serum (Cat No. 16050, Invitrogen, USA)-containing DMEM (Cat No. 11965, Invitrogen)] for 3 days. Afterward, the change in expression of myogenin (myogenic factor 4, MyoG) and a myosin heavy chain (MyHC), which are known as myogenic factors, was confirmed by western blotting. As primary antibodies, a MyoG antibody (Santa Cruz, sc-12732), a MyHC antibody (Santa Cruz, sc-32732), and a beta-actin antibody (Santa Cruz, sc-47778) were used. As a result, it can be confirmed that the higher the treatment concentration of Compound A, the higher the expression of MyoG and MyHC (FIG. 1).
In addition, C2C12 cells were treated with Compound A in the same manner as above, and then immunohistochemistry was performed with a MyHC antibody. As a result, it was confirmed that, as the treatment concentration of Compound A increases, the MyHC positive area and myotube thickness increase (FIG. 2).
(§5) Since Compound A is known as a G-protein-coupled receptor40 agonist (GPR40 agonist), it was confirmed whether the myogenesis promoting effect (Experimental Example 1) of Compound A is a general effect of GPR40 agonists. Specifically, experiments were conducted in the same manner as in Experimental Examples 1 and 2, except that C2C12 cells were treated with LY2922470 instead of Compound A. As a result of the experiments, it can be seen that, when the C2C12 cells were treated with LY2922470, the expression of myogenic factors MyoG and MyHC was inhibited (FIG. 7), the MyHC positive area decreased, and myotube formation was inhibited (FIG. 8).

C2C12 cells [4] = assay: Cell viability assay kit after palmitate treatment; settings: with palmitate in growth medium, 24 hours, versus palmitate only
Protocol: as §1
(§6) After mixing Compound A and the palmitate in a growth medium (10% FBS (Cat No. 16000, Invitrogen)-containing DMEM), C2C12 cells were treated with the resulting mixture for 24 hours, and then a Bax/Bcl2 ratio was confirmed by western blotting and cell viability was assessed using a cell viability assay kit (Dozen, EZ-3000). Primary antibodies used herein were the Bax antibody (Santa Cruz, sc-7480) and Bcl2 antibody (Santa Cruz, sc-7382). Bax is a protein inducing apoptosis, and Bcl2 is a protein inhibiting apoptosis by hindering the migration of Bax to mitochondria.
as §5

C2C12 cells [5] = assay: Bax/Bcl2 ratio by western blotting after palmitate treatment; settings: with palmitate in growth medium, 24 hours, versus palmitate only
Protocol: as §1, §6

C2C12 cells [6] = assay: MyoG and MyHC expression after palmitate treatment and 3 days of differentiation; settings: with palmitate 24 hours, then 3 days differentiation, versus decrease by palmitate only
Protocol: as §1, §2

C2C12 cells [7] = assay: Cell viability of differentiated C2C12 myotubes treated with palmitate; settings: C2C12 differentiated 6 days into myotubes, with palmitate in differentiation medium, versus palmitate only
Protocol: as §1, §3

C2C12 cells [8] = assay: Expression of myogenic factors MyoG and MyHC by western blotting in C2C12 myoblasts; settings: differentiation medium (2% horse serum DMEM), 3 days
Protocol: as §4, §5

[9] = immunohistochemistry with MyHC antibody

**Q.** Which results are given for `CC#C[C@@H](CC(=O)O)c1ccc(OCc2cccc(C3=CCC4(CC3)OCCO4)c2)cc1` [Compound A, (3S)-3-(4-(3-(1,4-dioxaspiro[4,5]des-7-en-8-yl)benzyloxy)phenyl)hex-4-inoic acid]?
**A.** MyHC positive area (C2C12 cells [1]): reversed; myotube thickness (C2C12 cells [1]): reversed; atrogin-1 expression (C2C12 cells [2]): decreased; MyHC positive area (C2C12 cells [3]; [9]): increase; myotube thickness (C2C12 cells [3]; [9]): increase; cell viability (apoptosis caused by palmitate) (C2C12 cells [4]): increased; also recorded: inhibited apoptosis; Bax/Bcl2 ratio (C2C12 cells [5]): decreased; expression of MyHC (C2C12 cells [6]): reversed; expression of MyoG (C2C12 cells [6]): reversed; cell viability (C2C12 cells [7]): recovered; expression of MyHC (C2C12 cells [8]): higher; expression of MyoG (C2C12 cells [8]): higher

**Q.** `CC#C[C@@H](CC(=O)O)c1ccc(OCc2ccc(CN3CCCc4cccc(OC)c43)s2)cc1` [LY2922470, reference compound] was tested. Which myotube formation (C2C12 cells [3]) did it give?
**A.** inhibited

**Q.** What about the MyHC positive area (C2C12 cells [3]; [9]) of the same compound?
**A.** decreased

**Q.** And the “cell viability (apoptosis caused by palmitate)” value (C2C12 cells [4])?
**A.** did not inhibit apoptosis

**Q.** And the “expression of MyHC” value (C2C12 cells [8])?
**A.** inhibited

**Q.** And the “expression of MyoG” value (C2C12 cells [8])?
**A.** inhibited

**Q.** Which results are given for `CC#C[C@@H](CC(=O)O)c1ccc(OCc2cccc(C3=CCC4(CC3)OCCO4)c2)cc1` [compound of Formula 1, (3S)-3-(4-(3-(1,4-dioxaspiro[4,5]des-7-en-8-yl)benzyloxy)phenyl)hex-4-inoic acid]?
**A.** MyHC positive area (C2C12 cells [1]): reversed; myotube thickness (C2C12 cells [1]): reversed; myotube formation (C2C12 cells [3]): promoted; cell viability (apoptosis caused by palmitate) (C2C12 cells [4]): reversed; Bax/Bcl2 ratio (C2C12 cells [5]): reversed; expression of MyHC (C2C12 cells [6]): reversed; expression of MyoG (C2C12 cells [6]): reversed; expression of MyHC (C2C12 cells [8]): increases; expression of MyoG (C2C12 cells [8]): increases
